From ChEMBL document CHEMBL5365413, “Optimizing metabolic stability of phosphodiesterase 5 inhibitors: Discovery of a potent N-(pyridin-3-ylmethyl)quinoline derivative targeting synaptic plasticity” (Bioorg Med Chem Lett, 2023)
pIC50: −log10 of the molar value. Activity calls are given as the source filed them. The rule behind the calls is not given here.

Experiments:
[1] = molecular target: cGMP-specific 3',5'-cyclic phosphodiesterase (Homo sapiens, UniProt O76074); assay: Inhibition of human recombinant PDE5A1 by fluorescence based assay
[2] = Metabolic stability in human liver microsomes assessed as intrinsic clearance; type: ADME, Microsome
[3] = Metabolic stability in human liver microsomes assessed as half life; type: ADME, Microsome
[4] = Inhibition of PDE3 (unknown origin) by fluorescent based assay; set-up: species or system Homo sapiens
[5] = Inhibition of PDE8 (unknown origin) by fluorescent based assay; set-up: species or system Homo sapiens
[6] = Inhibition of PDE6 (unknown origin) by fluorescent based assay; set-up: species or system Homo sapiens
[7] = Selectivity index, ratio of IC50 for inhibition of PDE6 (unknown origin) to IC50 for inhibition of human recombinant PDE5A1
[8] = Inhibition of PDE2 (unknown origin) by fluorescent based assay; set-up: species or system Homo sapiens
[9] = Inhibition of PDE11 (unknown origin) by fluorescent enzymatic assay; set-up: species or system Homo sapiens
[10] = Inhibition of PDE1 (unknown origin) by fluorescent based assay; set-up: species or system Homo sapiens
[11] = Inhibition of PDE10 (unknown origin) by fluorescent based assay; set-up: species or system Homo sapiens
[12] = Inhibition of PDE9 (unknown origin) by fluorescent based assay; set-up: species or system Homo sapiens
[13] = Selectivity index, ratio of IC50 for inhibition of PDE7 (unknown origin) to IC50 for inhibition of human recombinant PDE5A1
[14] = Selectivity index, ratio of IC50 for inhibition of PDE11 (unknown origin) to IC50 for inhibition of human recombinant PDE5A1
[15] = Selectivity index, ratio of IC50 for inhibition of PDE1 (unknown origin) to IC50 for inhibition of human recombinant PDE5A1
[16] = Selectivity index, ratio of IC50 for inhibition of PDE8 (unknown origin) to IC50 for inhibition of human recombinant PDE5A1
[17] = system: Hippocampus; assay: Neuroprotective activity against o-Tau perfused mouse hippocampus tissue assessed as restoration of synaptic plasticity by measuring hippocampal […] at 50 nM for 10 min followed by tetanus stimulation and measured for 2 hrs by electrophysiology analysis; type: functional, tissue-based; conditions: time 130.0 min
[18] = system: Hippocampus; assay: Neuroprotective activity against mouse hippocampus tissue assessed as restoration of synaptic plasticity by measuring residual potentiation at 50 nM for 10 min followed by tetanus stimulation and measured for 2 hrs by electrophysiology analysis relative to control; type: functional, tissue-based; conditions: time 130.0 min
[19] = Selectivity index, ratio of IC50 for inhibition of PDE2 (unknown origin) to IC50 for inhibition of human recombinant PDE5A1
[20] = molecular target: Phosphodiesterase 7 (Homo sapiens, UniProt Q13946+Q9NP56); assay: Inhibition of PDE7 (unknown origin) by fluorescent based assay; type: protein assay
[21] = Selectivity index, ratio of IC50 for inhibition of PDE3 (unknown origin) to IC50 for inhibition of human recombinant PDE5A1
[22] = molecular target: Phosphodiesterase 4 (Homo sapiens, UniProt P27815+Q08499+Q07343+Q08493); assay: Inhibition of PDE4 (unknown origin) by fluorescent based assay; type: protein assay
[23] = system: Hippocampus; assay: Neuroprotective activity against o-Tau perfused mouse hippocampus tissue assessed as restoration of synaptic plasticity by measuring residual potentiation at 50 nM for 10 min followed by tetanus stimulation and measured for 2 hrs by electrophysiology analysis relative to control; type: functional, tissue-based; conditions: time 130.0 min
[24] = Selectivity index, ratio of IC50 for inhibition of PDE9 (unknown origin) to IC50 for inhibition of human recombinant PDE5A1
[25] = Selectivity index, ratio of IC50 for inhibition of PDE4 (unknown origin) to IC50 for inhibition of human recombinant PDE5A1
[26] = Selectivity index, ratio of IC50 for inhibition of PDE10 (unknown origin) to IC50 for inhibition of human recombinant PDE5A1

N#Cc1cc(C2CC2)c2ncc(CO)c(NCc3ccnc(Cl)c3)c2c1
pIC50 [1]: 6.09 | CLH [2]: 80 µL/min/mg | t1/2 [3]: 17.3 min

COc1cc(CNc2c(CO)cnc3c(C4CC4)cc(C#N)cc23)ccn1
pIC50 [1]: 6.74 | CLH [2]: 48 µL/min/mg | t1/2 [3]: 28.8 min

Cn1ccc2cc(CNc3c(CO)cnc4c(C5CC5)cc(C#N)cc34)ccc21
pIC50 [1]: 5.55

COc1ncc(CNc2c(CO)cnc3c(C4CC4)cc(C#N)cc23)cc1Cl
IC50 [4]: Not Active | IC50 [5]: Not Active | pIC50 [6]: 7.24 | Ratio IC50 [7]: 1.9 | pIC50 [8]: < 5.00 | pIC50 [1]: 7.52 | IC50 [9]: Not Active | IC50 [10]: Not Active | IC50 [11]: Not Active | IC50 [12]: Not Active | CLH [2]: 72 µL/min/mg | t1/2 [3]: 19.5 min

[2H]C([2H])(Nc1c(CO)cnc2c(C3CC3)cc(C#N)cc12)c1ccc(OC)c(Cl)c1
pIC50 [1]: 8.30 | CLH [2]: 85 µL/min/mg | t1/2 [3]: 16.4 min

COc1cc(CNc2c(CO)cnc3c(C4CC4)cc(C#N)cc23)cc(OC)c1OC
pIC50 [1]: 5.47

CCOC(=O)c1cnc2c(C3CC3)cc(C#N)cc2c1NCc1ccc(OC)nc1
pIC50 [1]: 5.89

N#Cc1cc(C2CC2)c2ncc(CO)c(NCc3ccc4c(c3)OCO4)c2c1
pIC50 [1]: 6.72 | CLH [2]: 88 µL/min/mg | t1/2 [3]: 15.7 min

COc1ccc(CNc2c(CO)cnc3c(C4CC4)cc(C#N)cc23)cn1
pIC50 ([4]; read-out: IC50): < 5.00 | Ratio IC50 [13]: > 500 | pIC50 ([5]; read-out: IC50): < 5.00 | Ratio IC50 [14]: > 500 | Ratio IC50 [15]: > 500 | pIC50 [6]: 6.59 | Ratio IC50 [7]: 13 | pIC50 [8]: 6.74 | Ratio IC50 [16]: > 500 | pIC50 ([9]; read-out: IC50): < 5.00 | Activity [17]: Active | pIC50 ([10]; read-out: IC50): < 5.00 | Activity [18]: inactive | Ratio IC50 [19]: 9 | IC50 [20]: > 10000 nM | pIC50 ([11]; read-out: IC50): < 5.00 | pIC50 ([12]; read-out: IC50): < 5.00 | Ratio IC50 [21]: > 500 | IC50 [22]: > 10000 nM | CLH [2]: 31 µL/min/mg | t1/2 [3]: 44.6 min | Activity [23]: Active | Ratio IC50 [24]: > 500 | Ratio IC50 [25]: > 500 | Ratio IC50 [26]: > 500

COc1ccc(CNc2c(CO)cnc3c(C4CC4)cc(C#N)cc23)cc1Cl
CLH [2]: 80 µL/min/mg | t1/2 [3]: 20.5 min
